GI50 and TGI data for 8 compounds are collected here from PubChem BioAssay (NCI).

Assay in all cases: DTP human tumour cell line panel, 48 h
The subject of test [1] is COLO 205 colon.
Test [2] concerns ACHN renal.
The test system of test [3] is K-562 leukemia.
In test [4] the test system is EKVX NSCLC.
Test [5] deals with UACC-62 melanoma.
Test [6] has as its system HCC-2998 colon.
Test [7] deals with KM12 colon.
The subject of test [8] is NCI-H460 lung.
Test [9] deals with SN12C renal.
The test system of test [10] is NCI-H522 lung.

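In this assay, cells in 96-well plates receive the compound at five concentrations for 48 hours. Endpoints are linearly interpolated between the surrounding concentrations. Here, GI50 denotes the concentration required for 50% inhibition of growth. Definition used: TGI = concentration required for complete inhibition of growth.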

With `CCN(c1cc(C#CCN2CCOCC2)cc(C(=O)NCc2c(C)cc(C)[nH]c2=O)c1C)C1CCC(N(C)CCOC)CC1` (stereo not given), the GI50 in [1], in [2], in test [3], in test [4], in test [5] and in test [6] was more than 100 µM in each case. Moreover, the GI50 in test [7], in test [8], in test [9] and in test [10] was more than 100 µM each time. The concentration for total growth inhibition (TGI) in test [1], in test [2], in [3], in test [4], in test [5] and in test [6] was more than 100 µM each time. Besides, the TGI in [7], in test [8], in [9] and in [10] was more than 100 µM in each case.

On to `CC(=O)[CH-]C(=O)c1ccccc1.CC(=O)[CH-]C(=O)c1ccccc1.CC[O-].O=C1c2ccccc2C(=O)c2c1ccc(O)c2[O-].[Ti+4]`, for which the TGI was more than 100 µM in [1]; more than 100 µM in test [2]; more than 100 µM in test [3]; 83.2 µM in test [4]; more than 100 µM in [5]; more than 100 µM in test [6]. In addition, the TGI is more than 100 µM in test [7], more than 100 µM in test [8], more than 100 µM in test [9] and 60.3 µM in [10].

With `COc1cccc2c1n([O-])c1cccc(OC)c1[n+]2=O`, the GI50 was 12.1 µM in test [1]; 4.35 µM in test [2]; 6.13 µM in [3]; 7.26 µM in [4]; 9.22 µM in test [5]; 2.36 µM in test [6]. Also, the GI50 is 10.6 µM in test [7], 3.05 µM in [8], 6.85 µM in [9] and 5.77 µM in test [10]. Further, the TGI in test [1] was 28.5 µM; in [2], more than 100 µM; in [3] it was more than 100 µM; in test [4], 37 µM; in [5], 27.4 µM; in test [6], 11.6 µM. Moreover, the TGI is 29.6 µM in [7], 14.4 µM in [8], more than 100 µM in test [9] and 28.1 µM in test [10].

`Cc1c(Cl)cccc1NC(=O)c1sc2nc3c(cc2c1N)CCCCC3`: the GI50 in test [1] was 0.596 µM; in test [2], 0.449 µM; in test [3] it was 0.166 µM; in test [4], 0.316 µM; in test [5] it was 0.233 µM; in test [6] it was 1.76 µM. For the same compound, the GI50 in test [7] was 0.236 µM; in test [8] it was 0.234 µM; in test [9], 1.44 µM; in test [10], 0.187 µM. Besides, the TGI in test [1] is 13.2 µM; in [2], more than 50 µM; in test [3], more than 50 µM; in test [4], more than 50 µM; in test [5], more than 50 µM; in [6], more than 50 µM. Further, the concentration for total growth inhibition (TGI) is more than 50 µM in test [7], 8 µM in test [8], more than 50 µM in test [9] and 42.3 µM in [10].

Take `O=S1Nc2c(Cl)cc(Cl)c(Cl)c2S1` (stereo not given): the concentration for total growth inhibition (TGI) in test [1], in test [2], in [3], in [4], in [5] and in test [6] was more than 100 µM in each case. Besides, the TGI in test [7], in test [8], in [9] and in test [10] was more than 100 µM in each case.

In the case of `CC1=NN(c2nc(N)nc(/C=C\c3ccc([N+](=O)[O-])s3)n2)C(C)(C)C1`, the GI50 was more than 100 µM in test [1]; more than 100 µM in [2]; 40.9 µM in test [3]; more than 100 µM in [4]; more than 100 µM in [5]; more than 100 µM in test [6]. In addition, the GI50 in test [7], in test [8], in [9] and in test [10] was more than 100 µM in each case. Also, the TGI in test [1], in [2], in test [3], in [4], in test [5] and in test [6] was more than 100 µM in each case. The TGI in [7], in [8], in test [9] and in test [10] was more than 100 µM throughout.

For the compound `O=C1C(Cl)=C(Nc2cccc(O)c2)C(=O)N1Cc1ccc(Cl)cc1Cl`, the GI50 in test [1] is 3.11 µM; in test [2], 5.59 µM; in test [3], 4.81 µM; in [4] it was 10 µM; in [5], 3.49 µM; in test [6], 3.55 µM. The GI50 in test [7] is 10.1 µM; in [8], 11.4 µM; in test [9], 2.67 µM; in test [10] it was 1.43 µM. The TGI in test [1] came to 30.2 µM; in [2], 17.7 µM; in test [3] it was 29.7 µM; in test [4], 26.6 µM; in [5], 14.7 µM; in test [6], 16.4 µM. The TGI came to 25.2 µM in [7], 29.7 µM in test [8], 15.1 µM in test [9] and 9.95 µM in test [10].

For the compound `COc1cc(-c2csc(NC(=O)Nc3cc(Cl)cc(Cl)c3)n2)cc(OC)c1OC`, the GI50 in [1] is 3.11 µM; in [2] it was 1.71 µM; in test [3], 4.4 µM; in [4], 1.87 µM; in test [5], 1.61 µM; in [6] it was 2.39 µM. In addition, the GI50 was 2.48 µM in [7], 1.81 µM in test [8], 1.78 µM in test [9] and 2.05 µM in [10]. In addition, the TGI was 11.4 µM in test [1]; 3.15 µM in [2]; more than 100 µM in [3]; 4.22 µM in [4]; 3.11 µM in test [5]; 5.55 µM in test [6]. The TGI in test [7] was determined as 8.14 µM; in [8], 3.52 µM; in test [9], 3.28 µM; in test [10], 7.09 µM.

Broadly, the GI50 is the concentration that inhibits growth by half. As a reminder, the TGI is the concentration giving total growth inhibition. Low values mean more potent growth arrest, high ones less potent growth arrest.
